Data on three molecules can be found in patent US6417399B1, “Amelioration of neurological disorders by the administration of (2R),(3S), and/or (2S),3(S) stereoisomers of valnoctamide” (Yissum Research Development Company of the Hebrew …, priority 1997, dated 2002).

Series [1] in a line: Pharmacokinetics of VCD stereoisomers in plasma after repeated oral dosing of racemic valnoctamide to epileptic patients. The series is classed as in vivo, human. Particulars: repeated oral racemic VCD 200 mg tid, last day. The procedure:
(§1) Patients Six epileptic patients (four men and two women aged 23-35 years, with a body weight of 56-85 kg) were studied. All had been receiving a constant carbamazepine dose (800-1200 mg/day) for at least three months. One patient was also receiving phenytoin (250 mg/day) and a second patient phenobarbital (150 mg/day). Each patient received add-on VCD for eight consecutive days at a dosage of 400 mg on day 1 (single dose day), followed by 200 mg three times daily (tid) for seven days. On the last day, only the morning and the midday doses were administered. Blood samples for plasma VCD levels were collected at 0, 0.25, 0.5, 1, 1.5, 2, 3, 4, 5, 6, 8, 10, 12 and 24 hours after the first and the last morning dose. Additional samples were taken at times 0, 0.5, 1, and 2 hours after the morning dose on the last treatment day.
(§2) Plasma Handling and Analytical Assays Plasma samples were separated immediately by centrifugation at 2,000 g for 10 minutes and stored at −20° C. until assaying (VCD is stable at −20° C.). The VCD plasma samples were analyzed by a gas chromatograph (HP 5890 series II)-mass spectrometer (HP 5989A)-GC-MS data system equipped with chiral capillary column. The mass spectrometer was operated in E1 mode at 70eV, the source temperature of the MS was maintained at 200° C. and the quadruple at 100° C. Mass units and their relative abundance were calibrated with perfluorotributylamine (PFTBA). Spectra were collected in the range of […], and the chiral analysis started 18 minutes after injection. Gas chromatograph (GC) oven temperature programming conditions were as follows: 50° C. for 1 minute, then increasing at a rate of 8° C./minute until 100° C., holding for a minute then 4° C./minute until reaching a final temperature of 250° C. The injector temperature is 240° C. and the GC-MS transfer line temperature is 250° C. Inlet pressure is 5 psi with a linear flow rate 20 cm/second. Helium was used as the carrier gas. Chromatographic resolution of the VCD stereoisomers was accomplished by a direct separation on a chiral stationary phase (CSP) column. The CSP consisted of a Chirasil-γ-Dex (octakis (3-O-butanoyl-2,6-di-o-pentyl)-γ-cyclodextrin chemically linked via a 6-mono-octamethylene spacer to a dimethylpolysiloxane. The 0.25 μm Chirasil-γ-Dex was coated on a 25 m×250 μm (id) fused silica capillary column. This CSP of a cyclodextin derivative allows complete baseline resolution of the four stereoisomers (α=1.04, Rs=2.0-2.4) in 24 minutes as depicted in FIG. 2. Intra and inter-day variability in the retention times of the four VCD stereoisomers was less than 10%. A calibration curve was established by spiking drug-free plasma samples with known amounts of racemic VCD at a concentration range of 0.2 mg/L to 8 mg/L (or 0.05 mg/L to 2 mg/L of each of the four VCD stereoisomers).
(§3) Pharmacokinetic and Statistical Analysis Pharmacokinetic parameters were calculated by noncompartmental analysis according to statistical moment theory. Peak plasma concentrations (Cmax) and peak times (tmax) were derived directly from the measured values. The linear terminal slopes (λ) of the log-concentration of each VCD stereoisomer versus time curves were calculated by the peeling procedure. Half life (t½) values were calculated as 0.693/λ. Areas under the plasma concentration versus time curve (AUC), after single dosing, were calculated by the trapezoidal rule with extrapolation to infinity by dividing the last measured concentration by the terminal slope. During repeated administration AUC was calculated over the last two dosing intervals by using the trapezoidal rule. Mean residence time (MRT) was calculated after single dosing as AUMC/AUC, in which AUMC is the area under the concentration×time product versus time curve from zero to infinity. Following single dosing, oral clearance (CL/F, in which F is the oral availability) and apparent volume of distribution at steady state (Vss/F) were calculated as Dose/AUC and as MRT×CL/F, respectively. […]

A short description of series [2]: Pharmacokinetics of VCD stereoisomers in plasma after single oral dose of racemic valnoctamide to epileptic patients. The series is classed as in vivo, human. Particulars: for CL/F / Cmax / MRT / tmax / t½: single oral 400 mg racemic VCD. The method, then: as §1, §2, §3
A short description of series [3]: Pharmacokinetics of VCD stereoisomers in plasma after single oral dose of racemic valnoctamide to healthy subjects. The series is classed as in vivo, human. The procedure:
Healthy Subjects Seven healthy male volunteers, aged 20-31 years, weighing 61 to 85 kg, received 2×200 mg valnoctamide tablets (Nirvanil@) at 08:00 hours after an overnight fast. Venous blood samples were taken through an indwelling catheter 0, 0.5, 1, 2, 3, 4, 5, 6, 8, 10, 12 and 24 hours after dosing. Food was witheld for 4 hours after dosing.
as §2
Pharmacokinetic and Statistical Analysis Pharmacokinetic parameters were calculated by noncompartmental analysis according to statistical moment theory. Peak plasma concentrations (Cmax) and peak times (tmax) were derived directly from the measured values. The linear terminal slopes (λ) of the log-concentration of each VCD stereoisomer versus time curves were calculated by the peeling procedure. Half life (t½) values were calculated as 0.693/λ. Areas under the plasma concentration versus time curve (AUC), after single dosing, were calculated by the trapezoidal rule with extrapolation to infinity by dividing the last measured concentration by the terminal slope. During repeated administration AUC was calculated over the last two dosing intervals by using the trapezoidal rule. Mean residence time (MRT) was calculated after single dosing as AUMC/AUC, in which AUMC is the area under the concentration×time product versus time curve from zero to infinity. Following single dosing, oral clearance (CL/F, in which F is the oral availability) and apparent volume of distribution at steady state (Vss/F) were calculated as Dose/AUC and as MRT×CL/F, respectively. Following repeated dosing, CL/F was calculated from the quotient of the dose (200 mg) and the AUC obtained during one dosing interval (defined as one-half of the AUC calculated over two consecutive dosing intervals). Comparison of the pharmacokinetic parameters of all four VCD stereoisomers was made by ANOVA.

For series [4] the following is noted: in animals; cited from earlier work.
The conditions of series [5]: animal models; cited from earlier work.
For series [6] the following is noted: in vivo; cited from earlier work.
A further series concerns the target T1, epoxide hydrolase (Homo sapiens, UniProt P07099).
T1 construct: decreased clearance of CBZ-E in patients; host or cells: patients in vivo (endogenous enzyme)
T1 sequence (P07099 1-455): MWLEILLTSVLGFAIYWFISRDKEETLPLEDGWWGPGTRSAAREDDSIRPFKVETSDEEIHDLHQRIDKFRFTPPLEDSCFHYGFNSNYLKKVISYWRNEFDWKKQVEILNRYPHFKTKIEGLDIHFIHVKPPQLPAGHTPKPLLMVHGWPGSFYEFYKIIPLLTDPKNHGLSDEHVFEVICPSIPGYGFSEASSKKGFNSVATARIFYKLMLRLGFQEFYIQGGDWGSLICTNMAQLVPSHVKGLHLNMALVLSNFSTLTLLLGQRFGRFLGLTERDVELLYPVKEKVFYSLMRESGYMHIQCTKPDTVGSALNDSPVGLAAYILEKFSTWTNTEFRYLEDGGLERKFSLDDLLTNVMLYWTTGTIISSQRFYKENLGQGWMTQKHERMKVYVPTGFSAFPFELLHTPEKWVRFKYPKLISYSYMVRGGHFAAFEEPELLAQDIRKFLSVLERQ
Particulars: racemic VCD; cited from earlier work.

Setting [7] is: Mean ± SD of six epileptic patients.
Setting [8] is: individual epileptic patients on carbamazepine.
The mark [9] stands for this setting: Mean ± SD of seven healthy subjects, single oral 400 mg racemic VCD.
Setting [10] is: individual healthy subjects, single oral 400 mg racemic VCD.

Molecules are shown by their SMILES. Values joined by “and” are separate entries in the source; they are usually repeats but may differ in a detail not shown here. Equal values may be shown once.

On to `CCC(C)C(CC)C(N)=O` (single isomer, unassigned; stereoisomer a) [Stereoisomer A], for which the CL/F in series [1] (setting [7]) was 21 ± 4 L/h; in series [1] (individual epileptic patients), 23 L/h and 19 L/h (3×) and 20 L/h and 29 L/h; in series [2] (setting [7]) it was 32 ± 7 L/h; in series [2] (setting [8]) it was 40 L/h and 27 L/h and 35 L/h (2×) and 32 L/h and 20 L/h; in series [3] (setting [9]), 4.2 ± 0.6 L/h; in series [3] (setting [10]), 3.6 L/h and 4.5 L/h and 4.1 L/h and 3.7 L/h and 4.6 L/h and 4.2 L/h and 3.5 L/h. The Cmax in series [1] (setting [7]) was 900 ± 200 ng/mL; in series [1] (individual epileptic patients), 900 ng/mL and 1100 ng/mL and 720 ng/mL and 860 ng/mL and 800 ng/mL and 1200 ng/mL; in series [2] (setting [7]) it was 0.78 ± 0.10 mg/L; in series [2] (setting [8]), 0.71 mg/L (2×) and 0.94 mg/L and 0.82 mg/L and 0.88 mg/L and 0.67 mg/L; in series [3] (setting [9]), 1.7 ± 0.2 mg/L; in series [3] (setting [10]) it was 2.0 mg/L and 1.5 mg/L (2×) and 1.8 mg/L (3×) and 1.7 mg/L. The tmax in series [1] (setting [7]) was 1.5 ± 0.3 h; in series [1] (individual epileptic patients) it was 2.0 h and 1.5 h (3×) and 1.0 h and 1.75 h; in series [2] (setting [7]), 0.8 ± 0.5 h; in series [2] (setting [8]) it was 1.5 h (2×) and 0.5 h (4×); in series [3] (setting [9]), 0.7 ± 0.3 h; in series [3] (setting [10]), 1 h (3×) and 0.5 h (4×). The t½ is 2.8 ± 0.7 h in series [1] (setting [7]); 2.2 h and 2.7 h and 3.8 h (2×) and 2.4 h and 4.8 h in series [1] (individual epileptic patients, last dosing interval); 4.1 ± 2.1 h in series [2] (setting [7]); 2.8 h and 3.6 h (2×) and 2.5 h and 8.3 h and 3.8 h in series [2] (setting [8]); 10.2 ± 2.1 h in series [3] (setting [9]); “approximately 10 h” in series [3] (Mean ± SD of seven healthy subjects, single oral 400 mg racemic VCD, listed as A). The t½ in series [3] (individual healthy subjects, single oral 400 mg racemic VCD (Nirvanil), stereoisomer in plasma) is 8.8 h and 13.6 h and 8.1 h and 10.7 h and 9.5 h and 8.5 h and 12.5 h. Further, the MRT was 5.4 ± 1.5 h in series [2] (setting [7]); 4.4 h and 5.1 h (2×) and 4.3 h and 5.3 h and 8.3 h in series [2] (setting [8]); 15 ± 3 h in series [3] (setting [9]); 13 h (2×) and 20 h and 12 h (2×) and 15 h and 18 h in series [3] (setting [10]). In series [2] (epileptic patients), the half lives result is reported as “about 3 h”.
Consider `CCCC(CCC)C(N)=O` [VPD, Valpromide], for which the teratogenicity result in series [4] is on record as “has not been found to be teratogenic”. Further, in series [5], the “anticonvulsant potency relative to VPA” value is listed as “three times more potent”.
As to `CCC(C)C(CC)C(N)=O` (racemic) [VCD, 2-ethyl-3-methyl pentanamide], the “half-life relative to that of VPD” value in series [6] is given as “ten times higher”. For the same molecule, in series [5], the “anticonvulsant potency relative to VPA” value is recorded as “three times more potent”. At epoxide hydrolase, the “inhibition of the enzyme epoxide hydrolase” value is “inhibitor of the enzyme epoxide hydrolase”.

As usually defined, the CL/F is the apparent clearance, not corrected for the fraction that reaches the circulation. One may read the Cmax as the highest concentration seen after dosing. As usually defined, the t½ is the time needed for the level to fall by half in the phase considered. The low end stands for fast loss, the high end for slow loss. As usually defined, the MRT is a mean duration of stay, worked out from the concentration-time curve.
